These results are taken from patent US12059502B2, “Composition and method for pretreating cancer” (Valcuria AB, priority 2016, dated 2024).

Values after ≈ are worked out from the molar mass of the structure shown. Read-outs that look alike come from different tables or passages of the source.

For series [1] the following is noted: according to Sigma-Aldrich; cited from earlier work.
Series [2] can be described thus: Reported physicochemical properties of valproic acid. The following applies: based on reported absorption and solubility values.
For series [3] the following is noted: cited from earlier work.
Setting [4] is: 70 kg person, Gugler and Unruh 1980.
Where [5] appears, read: systemic disposition PK of the reported 250 mg single dose study.

For the compound `CCCC(CCC)C(=O)O` [VPA, Valproic acid], the solubility in water in series [1] was 50 mg/mL (≈ 347 mM). The “biopharmaceutical classification system (BCS) class” value in series [2] is on record as “class I”. In series [3] (setting [4]), the CL is on record as 0.61 L/h; the F is listed as 100%; the volume of distribution (Vd) (as a rule, the apparent volume that relates the amount in the body to the concentration in plasma or blood) is given as 10.6 L. Besides, the “rate of absorption of released drug, first order (kabs)” value in series [3] (based on data of Dutta and Reed 2007) was 61 h⁻¹. Also, the “time up to which intestinal absorption was measured by deconvolution” value in series [3] (oral, Dutta and Zhang, 2004) is reported as “up to 22 hr”. In addition, in series [3] (oral, immediate release, modified release and extended release formulations), the “bioavailability (F)” value is about 100%. Further, in series [3] (setting [5]), the CL is given as 0.52 L/h and the V is 7.1 L.
